Data reported in PMC6409085, “Three odorant-binding proteins are involved in the behavioral response of Sogatella furcifera to rice plant volatiles” (PeerJ, 2019).
Where “and” joins values, the source holds several entries; their conditions need not be identical. Identical values can stand only once.

Legend:
SfurOBP3 = SfurOBP3 (Sogatella furcifera, UniProt V5T818); test: biochemical; assay type: binding; conditions: for Fluorescence competitive binding assay, fluorescence intensity: OBP3, three replicate columns
Procedure, shortened: (§1)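 Protein 2.0 µM + 1-NPN 2.0 µM, 50 mM Tris-HCl pH 7.4; competitor odorants 2, 4 … 20 µM final; read 2 min post-addition, ex 337/em 390–490 nm; n=3. K1-NPN from 1-NPN titration/Scatchard; Ki from IC50 corrected for free 1-NPN.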

SfurOBP2 = SfurOBP2 (Sogatella furcifera, UniProt V5T759); test: biochemical; assay type: binding
Procedure, shortened: as §1

SfurOBP1 = SfurOBP1 (Sogatella furcifera, UniProt V5T8N5); test: biochemical; assay type: binding; conditions: for Fluorescence competitive binding assay, fluorescence intensity: OBP1, three replicate columns
Procedure, shortened: as §1

SfurOBP11 = SfurOBP11 (Sogatella furcifera, UniProt V5T6E3); test: biochemical; assay type: binding
Procedure, shortened: as §1

S. furcifera adults = test: Y-tube olfactometer behavioral trials; assay type: in vivo, Sogatella furcifera; conditions: odorant 50 µL/L vs hexane; adults
Procedure, shortened: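 Single S. furcifera adults (2 days post-emergence, starved 0.5 h) chose between odorant (100 µL of 50 µL/L on filter paper) and hexane control in a glass Y-tube, charcoal-filtered humidified air 300 mL/min per arm, 25 ± 1 °C, 50% RH. Choice scored if insect passed half an arm and stayed >1 min within 10 min; 45 insects per compound, chi-squared test.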

Sequence of SfurOBP1 (V5T8N5 entry or part of it): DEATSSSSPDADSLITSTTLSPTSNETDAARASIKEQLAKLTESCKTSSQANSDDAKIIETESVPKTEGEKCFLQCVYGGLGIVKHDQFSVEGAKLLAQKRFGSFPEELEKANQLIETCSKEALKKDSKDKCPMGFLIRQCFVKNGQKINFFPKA
Sequence of SfurOBP2 (V5T759 entry or part of it): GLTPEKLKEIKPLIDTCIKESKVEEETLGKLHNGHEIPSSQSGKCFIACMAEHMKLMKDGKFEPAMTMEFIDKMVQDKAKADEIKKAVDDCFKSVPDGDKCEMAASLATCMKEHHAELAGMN
Sequence of SfurOBP3 (V5T818 entry or part of it): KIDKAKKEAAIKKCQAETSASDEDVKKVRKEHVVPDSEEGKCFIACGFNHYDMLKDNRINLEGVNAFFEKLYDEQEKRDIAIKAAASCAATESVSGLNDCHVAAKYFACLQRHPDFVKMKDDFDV
Sequence of SfurOBP11 (V5T6E3 entry or part of it): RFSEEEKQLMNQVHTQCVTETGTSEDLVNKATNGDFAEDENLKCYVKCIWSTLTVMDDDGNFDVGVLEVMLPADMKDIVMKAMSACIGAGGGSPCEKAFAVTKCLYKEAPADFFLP

With `CCCCCCCCC=O` [nonanal] the “Fluorescence competitive binding assay, fluorescence intensity” value (SfurOBP3; ligand concentration 2) was 61166 and 61638 and 64447, the “Fluorescence competitive binding assay, fluorescence intensity” value (SfurOBP3; ligand concentration 4) was 63416 and 64552 and 59405 and the “Fluorescence competitive binding assay, fluorescence intensity” value (SfurOBP3; ligand concentration 6) was 55740 and 58561 and 59455. For the same compound, the “Fluorescence competitive binding assay, fluorescence intensity” value (SfurOBP3; ligand concentration 8) was 58358 and 53959 and 58376, the “Fluorescence competitive binding assay, fluorescence intensity” value (SfurOBP3; ligand concentration 10) was 51490 and 57535 and 53641 and the “Fluorescence competitive binding assay, fluorescence intensity” value (SfurOBP3; ligand concentration 12) was 51816 and 53317 and 52476. The “Fluorescence competitive binding assay, fluorescence intensity” value (SfurOBP3; ligand concentration 14) was 50240 and 49815 and 48142, the “Fluorescence competitive binding assay, fluorescence intensity” value (SfurOBP3; ligand concentration 16) was 46199 and 48600 and 42686 and the “Fluorescence competitive binding assay, fluorescence intensity” value (SfurOBP3; ligand concentration 18) was 47759 and 45050 and 48665. The “Fluorescence competitive binding assay, fluorescence intensity” value (SfurOBP3; ligand concentration 20) was 47298 and 41425 and 41649, the IC50 (SfurOBP3; SfurOBP3, protein and 1-NPN both 2.0 µM, competitor 2-20 µM, read-out: IC50) was over 20 µM and the IC50 (SfurOBP2; SfurOBP2, protein and 1-NPN both 2.0 µM, competitor 2-20 µM, read-out: IC50) was over 20 µM. The “Fluorescence competitive binding assay, OBP2 (raw fluorescence reading)” value (SfurOBP2; ligand concentration 2 (unit not given), replicate column 1 of 3) was 22495, the “Fluorescence competitive binding assay, OBP2 (raw fluorescence reading)” value (SfurOBP2; ligand concentration 2 (unit not given), replicate column 2 of 3) was 22840 and the “Fluorescence competitive binding assay, OBP2 (raw fluorescence reading)” value (SfurOBP2; ligand concentration 2 (unit not given), replicate column 3 of 3) was 21233. The “Fluorescence competitive binding assay, OBP2 (raw fluorescence reading)” value (SfurOBP2; ligand concentration 4 (unit not given), replicate column 1 of 3) was 23391, the “Fluorescence competitive binding assay, OBP2 (raw fluorescence reading)” value (SfurOBP2; ligand concentration 4 (unit not given), replicate column 2 of 3) was 22604 and the “Fluorescence competitive binding assay, OBP2 (raw fluorescence reading)” value (SfurOBP2; ligand concentration 4 (unit not given), replicate column 3 of 3) was 23347. The “Fluorescence competitive binding assay, OBP2 (raw fluorescence reading)” value (SfurOBP2; ligand concentration 6 (unit not given), replicate column 1 of 3) was 22973, the “Fluorescence competitive binding assay, OBP2 (raw fluorescence reading)” value (SfurOBP2; ligand concentration 6 (unit not given), replicate column 2 of 3) was 22972 and the “Fluorescence competitive binding assay, OBP2 (raw fluorescence reading)” value (SfurOBP2; ligand concentration 6 (unit not given), replicate column 3 of 3) was 22119. For the same compound, the “Fluorescence competitive binding assay, OBP2 (raw fluorescence reading)” value (SfurOBP2; ligand concentration 8 (unit not given), replicate column 1 of 3) was 20829, the “Fluorescence competitive binding assay, OBP2 (raw fluorescence reading)” value (SfurOBP2; ligand concentration 8 (unit not given), replicate column 2 of 3) was 21110 and the “Fluorescence competitive binding assay, OBP2 (raw fluorescence reading)” value (SfurOBP2; ligand concentration 8 (unit not given), replicate column 3 of 3) was 19166. For the same compound, the “Fluorescence competitive binding assay, OBP2 (raw fluorescence reading)” value (SfurOBP2; ligand concentration 10 (unit not given), replicate column 1 of 3) was 18739, the “Fluorescence competitive binding assay, OBP2 (raw fluorescence reading)” value (SfurOBP2; ligand concentration 10 (unit not given), replicate column 2 of 3) was 19572 and the “Fluorescence competitive binding assay, OBP2 (raw fluorescence reading)” value (SfurOBP2; ligand concentration 10 (unit not given), replicate column 3 of 3) was 20059. For the same compound, the “Fluorescence competitive binding assay, OBP2 (raw fluorescence reading)” value (SfurOBP2; ligand concentration 12 (unit not given), replicate column 1 of 3) was 18220, the “Fluorescence competitive binding assay, OBP2 (raw fluorescence reading)” value (SfurOBP2; ligand concentration 12 (unit not given), replicate column 2 of 3) was 17338 and the “Fluorescence competitive binding assay, OBP2 (raw fluorescence reading)” value (SfurOBP2; ligand concentration 12 (unit not given), replicate column 3 of 3) was 19313. For the same compound, the “Fluorescence competitive binding assay, OBP2 (raw fluorescence reading)” value (SfurOBP2; ligand concentration 14 (unit not given), replicate column 1 of 3) was 18807, the “Fluorescence competitive binding assay, OBP2 (raw fluorescence reading)” value (SfurOBP2; ligand concentration 14 (unit not given), replicate column 2 of 3) was 18093 and the “Fluorescence competitive binding assay, OBP2 (raw fluorescence reading)” value (SfurOBP2; ligand concentration 14 (unit not given), replicate column 3 of 3) was 18015. The “Fluorescence competitive binding assay, OBP2 (raw fluorescence reading)” value (SfurOBP2; ligand concentration 16 (unit not given), replicate column 1 of 3) was 15898, the “Fluorescence competitive binding assay, OBP2 (raw fluorescence reading)” value (SfurOBP2; ligand concentration 16 (unit not given), replicate column 2 of 3) was 17144 and the “Fluorescence competitive binding assay, OBP2 (raw fluorescence reading)” value (SfurOBP2; ligand concentration 16 (unit not given), replicate column 3 of 3) was 15877. For the same compound, the “Fluorescence competitive binding assay, OBP2 (raw fluorescence reading)” value (SfurOBP2; ligand concentration 18 (unit not given), replicate column 1 of 3) was 16375, the “Fluorescence competitive binding assay, OBP2 (raw fluorescence reading)” value (SfurOBP2; ligand concentration 18 (unit not given), replicate column 2 of 3) was 13674 and the “Fluorescence competitive binding assay, OBP2 (raw fluorescence reading)” value (SfurOBP2; ligand concentration 18 (unit not given), replicate column 3 of 3) was 18894. The “Fluorescence competitive binding assay, OBP2 (raw fluorescence reading)” value (SfurOBP2; ligand concentration 20 (unit not given), replicate column 1 of 3) was 16296, the “Fluorescence competitive binding assay, OBP2 (raw fluorescence reading)” value (SfurOBP2; ligand concentration 20 (unit not given), replicate column 2 of 3) was 16765 and the “Fluorescence competitive binding assay, OBP2 (raw fluorescence reading)” value (SfurOBP2; ligand concentration 20 (unit not given), replicate column 3 of 3) was 17962. The “Fluorescence competitive binding assay, fluorescence intensity” value (SfurOBP1; ligand concentration 2 (μM)) was 7802 and 7217 and 8367, the “Fluorescence competitive binding assay, fluorescence intensity” value (SfurOBP1; ligand concentration 4 (μM)) was 10256 and 8383 and 7448 and the “Fluorescence competitive binding assay, fluorescence intensity” value (SfurOBP1; ligand concentration 6 (μM)) was 7755 and 7709 and 7657. The “Fluorescence competitive binding assay, fluorescence intensity” value (SfurOBP1; ligand concentration 8 (μM)) was 8353 and 6725 and 6896, the “Fluorescence competitive binding assay, fluorescence intensity” value (SfurOBP1; ligand concentration 10 (μM)) was 7309 and 7612 and 6541 and the “Fluorescence competitive binding assay, fluorescence intensity” value (SfurOBP1; ligand concentration 12 (μM)) was 7182 and 6932 and 8389. The “Fluorescence competitive binding assay, fluorescence intensity” value (SfurOBP1; ligand concentration 14 (μM)) was 7695 and 6348 and 8106, the “Fluorescence competitive binding assay, fluorescence intensity” value (SfurOBP1; ligand concentration 16 (μM)) was 7645 and 7087 and 7719 and the “Fluorescence competitive binding assay, fluorescence intensity” value (SfurOBP1; ligand concentration 18 (μM)) was 9286 and 8583 and 8604. For the same compound, the “Fluorescence competitive binding assay, fluorescence intensity” value (SfurOBP1; ligand concentration 20 (μM)) was 13401 and 7898 and 7495, the IC50 (SfurOBP1; SfurOBP1, protein and 1-NPN both 2.0 µM, competitor 2-20 µM, read-out: IC50) was over 20 µM and the IC50 (SfurOBP11; SfurOBP11, protein and 1-NPN both 2.0 µM, competitor 2-20 µM, read-out: IC50) was over 20 µM. The “Fluorescence intensity, fluorescence competitive binding assay, OBP11” value (shortened to “Fluorescence intensity … OBP11”) (SfurOBP11; ligand concentration 2, replicate 1) was 31191, the “Fluorescence intensity … OBP11” value (SfurOBP11; ligand concentration 2, replicate 2) was 27026 and the “Fluorescence intensity … OBP11” value (SfurOBP11; ligand concentration 2, replicate 3) was 27251. For the same compound, the “Fluorescence intensity … OBP11” value (SfurOBP11; ligand concentration 4, replicate 1) was 33062, the “Fluorescence intensity … OBP11” value (SfurOBP11; ligand concentration 4, replicate 2) was 32235 and the “Fluorescence intensity … OBP11” value (SfurOBP11; ligand concentration 4, replicate 3) was 30749. For the same compound, the “Fluorescence intensity … OBP11” value (SfurOBP11; ligand concentration 6, replicate 1) was 33680, the “Fluorescence intensity … OBP11” value (SfurOBP11; ligand concentration 6, replicate 2) was 31560 and the “Fluorescence intensity … OBP11” value (SfurOBP11; ligand concentration 6, replicate 3) was 31826. The “Fluorescence intensity … OBP11” value (SfurOBP11; ligand concentration 8, replicate 1) was 29344, the “Fluorescence intensity … OBP11” value (SfurOBP11; ligand concentration 8, replicate 2) was 31482 and the “Fluorescence intensity … OBP11” value (SfurOBP11; ligand concentration 8, replicate 3) was 30513. For the same compound, the “Fluorescence intensity … OBP11” value (SfurOBP11; ligand concentration 10, replicate 1) was 29393, the “Fluorescence intensity … OBP11” value (SfurOBP11; ligand concentration 10, replicate 2) was 28581 and the “Fluorescence intensity … OBP11” value (SfurOBP11; ligand concentration 10, replicate 3) was 27079. The “Fluorescence intensity … OBP11” value (SfurOBP11; ligand concentration 12, replicate 1) was 26945, the “Fluorescence intensity … OBP11” value (SfurOBP11; ligand concentration 12, replicate 2) was 26618 and the “Fluorescence intensity … OBP11” value (SfurOBP11; ligand concentration 12, replicate 3) was 27193. The “Fluorescence intensity … OBP11” value (SfurOBP11; ligand concentration 14, replicate 1) was 24856, the “Fluorescence intensity … OBP11” value (SfurOBP11; ligand concentration 14, replicate 2) was 26161 and the “Fluorescence intensity … OBP11” value (SfurOBP11; ligand concentration 14, replicate 3) was 27383. The “Fluorescence intensity … OBP11” value (SfurOBP11; ligand concentration 16, replicate 1) was 23278, the “Fluorescence intensity … OBP11” value (SfurOBP11; ligand concentration 16, replicate 2) was 23147 and the “Fluorescence intensity … OBP11” value (SfurOBP11; ligand concentration 16, replicate 3) was 23455. For the same compound, the “Fluorescence intensity … OBP11” value (SfurOBP11; ligand concentration 18, replicate 1) was 27255, the “Fluorescence intensity … OBP11” value (SfurOBP11; ligand concentration 18, replicate 2) was 25416 and the “Fluorescence intensity … OBP11” value (SfurOBP11; ligand concentration 18, replicate 3) was 25774. For the same compound, the “Fluorescence intensity … OBP11” value (SfurOBP11; ligand concentration 20, replicate 1) was 25007, the “Fluorescence intensity … OBP11” value (SfurOBP11; ligand concentration 20, replicate 2) was 22862 and the “Fluorescence intensity … OBP11” value (SfurOBP11; ligand concentration 20, replicate 3) was 22028. For the same compound, the “number of insects choosing hexane arm” value (S. furcifera adults) was 12, the “number of insects choosing volatilies arm” value (S. furcifera adults) was 17 and the “number of insects failed (no choice)” value (S. furcifera adults) was 11.
